Experiment: xn = mol fraction of the nth substance listed
Settings: 313.15 K, Fluid (supercritical or subcritical phases), Bellows volumetry

O=C=O [carbon dioxide] + CCO
Settings	mass density [kg/m3]
1000 kPa, x1 = 1	17.9
2000 kPa, x1 = 0.1	787.2
2000 kPa, x1 = 1	37.1
3000 kPa, x1 = 0.1	788.2
3000 kPa, x1 = 1	58.7
4000 kPa, x1 = 0.1	789.2
4000 kPa, x1 = 0.2	799.4
4000 kPa, x1 = 1	83.5
5000 kPa, x1 = 0.1	790.2
5000 kPa, x1 = 0.2	800.6
5000 kPa, x1 = 1	112.7
6000 kPa, x1 = 0.1	791.1
6000 kPa, x1 = 0.2	801.9
6000 kPa, x1 = 0.3	811.2
6000 kPa, x1 = 0.4	816.6
6000 kPa, x1 = 1	148.8
7000 kPa, x1 = 0.1	792.1
7000 kPa, x1 = 0.2	803.1
7000 kPa, x1 = 0.3	812.7
7000 kPa, x1 = 0.4	818.7
7000 kPa, x1 = 0.5	821.1
7000 kPa, x1 = 1	197.3
8000 kPa, x1 = 0.1	793.1
8000 kPa, x1 = 0.2	804.2
8000 kPa, x1 = 0.3	814.3
8000 kPa, x1 = 0.4	820.8
8000 kPa, x1 = 0.5	824
8000 kPa, x1 = 0.6	818.8
8000 kPa, x1 = 0.7	804.5
8000 kPa, x1 = 0.8	771.1
8000 kPa, x1 = 1	276.7
9000 kPa, x1 = 0.1	794
9000 kPa, x1 = 0.2	805.3
9000 kPa, x1 = 0.3	815.7
9000 kPa, x1 = 0.4	822.8
9000 kPa, x1 = 0.5	826.8
9000 kPa, x1 = 0.6	823
9000 kPa, x1 = 0.7	811.5
9000 kPa, x1 = 0.8	784.8
9000 kPa, x1 = 0.899	729.1
9000 kPa, x1 = 0.95	667
9000 kPa, x1 = 1	483.4
10000 kPa, x1 = 0.1	795
10000 kPa, x1 = 0.2	806.6
10000 kPa, x1 = 0.3	817.2
10000 kPa, x1 = 0.4	824.7
10000 kPa, x1 = 0.5	829.4
10000 kPa, x1 = 0.6	827
10000 kPa, x1 = 0.7	817.8
10000 kPa, x1 = 0.8	795.8
10000 kPa, x1 = 0.899	752.3
10000 kPa, x1 = 0.95	709.8
10000 kPa, x1 = 1	627.4

CCO [ethanol] + O=C=O
x2 = 0
Settings	mass density [kg/m3]
1000 kPa	773.1
2000 kPa	773.9
3000 kPa	774.8
4000 kPa	775.5
5000 kPa	776.4
6000 kPa	777.2
7000 kPa	778
8000 kPa	778.8
9000 kPa	779.6
10000 kPa	780.4

— the NIST ThermoML archive (doi:10.1021/je900127m)
